Results: US11197878B2, “Anti-inflammatory composition including novel quercetin-based compound” (AMOREPACIFIC CORPORATION, priority 2017, dated 2021)

How the values were obtained:
Type in all cases: cell-based
Settings in all cases: fibroblast culture medium; H2O2 500 μM 24 hours, then test material (31, 32: 100 μg/ml) 48 hours; ELISA
PGE2 (Prostaglandin E2) = assay: Test for inhibiting generation of PGE2 in H2O2-stimulated fibroblast (ELISA)
Experimental: (§1) Fibroblast (PromoCell, Germany) was inoculated in a 6-well culturing plate at a concentration of 1×10^5 cells, and cultured in a 5% CO2 incubator at 37° C. for 24 hours. The well was treated with H2O2 500 μM and stimulated for 24 hours, and then were treated with quercetin3-O-[3-O″-(E)-p-coumaroyl][β-D-glucopyranosyl-(1→3)-O-α-L-rhamnopyranosyl-(1→6)-O-β-D-glucopyranoside] (‘New Material 31’) and quercetin3-O-[3-O″-(E)-p-coumaroyl][α-L-rhamnopyranosyl-(1→6)-O-β-D-glucopyranoside]) (‘New Material 32’) at a concentration of 100 μg/ml, respectively, and reacted for 48 hours. After the reaction was finished, the culture medium was collected and the ELISA analysis was performed. Herein, α-bisabolol, which is the material typically used as an anti-inflammatory agent and abirritant, was used as a control. As PGE2, a kit of Assay Design® was used, and as IL-6 and IL-8, a kit of Endogen® was used, and the test was carried out according to the methods prescribed in the manuals of the respective companies. (‘31’ refers to New Material 31, and ‘32’ refers to New Material 32) Inhibition effect={1−(test sample−control)/(H2O2−control)}×100 <Equation 1>

IL-6 (Interleukin 6) = assay: Test for inhibiting generation of IL-6 in H2O2-stimulated fibroblast (ELISA)
Experimental: as §1

IL-8 (Interleukin 8) = assay: Test for inhibiting generation of IL-8 in H2O2-stimulated fibroblast (ELISA)
Experimental: as §1

Substance: α-bisabolol [a-bisabolol, reference compound]
- PGE2 (PGE2 (Prostaglandin E2)): 205 pg/mL
- IL-6 (IL-6 (Interleukin 6)): 180 pg/mL
- IL-8 (IL-8 (Interleukin 8)): 200 pg/mL
